In ChEMBL document CHEMBL1126309, “Aliphatic propargylamines: potent, selective, irreversible monoamine oxidase B inhibitors” (J Med Chem, 1992):

Target: T1, Amine oxidase [flavin-containing] B (Rattus norvegicus, UniProt P19643)
T1 sequence (P19643 whole entry): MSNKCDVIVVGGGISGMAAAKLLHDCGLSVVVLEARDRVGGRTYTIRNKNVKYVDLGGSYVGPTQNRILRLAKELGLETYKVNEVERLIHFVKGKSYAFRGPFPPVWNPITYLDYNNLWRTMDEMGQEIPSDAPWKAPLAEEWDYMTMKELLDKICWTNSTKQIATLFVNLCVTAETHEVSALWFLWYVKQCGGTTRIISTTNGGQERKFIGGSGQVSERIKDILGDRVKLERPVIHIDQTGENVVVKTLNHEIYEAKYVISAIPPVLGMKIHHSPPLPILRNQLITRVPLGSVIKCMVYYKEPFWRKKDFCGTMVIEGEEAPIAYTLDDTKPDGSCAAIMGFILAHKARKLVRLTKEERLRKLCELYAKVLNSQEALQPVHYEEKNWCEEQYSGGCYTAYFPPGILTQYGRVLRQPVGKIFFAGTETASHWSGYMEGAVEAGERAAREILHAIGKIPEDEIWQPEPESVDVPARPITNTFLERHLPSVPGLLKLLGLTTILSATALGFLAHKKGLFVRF
Test: Inhibition of Monoamine oxidase B of rat liver mitochondrial membranes
Type: cell membranes, Membrane
Details: not given; call rule not given here

SMILES	IC50
C#CCN(C)CCCCC(=O)OCC.O=C(O)C(=O)O	Not Active
C#CCN(C)CCC(=O)O.O=C(O)C(=O)O	Not Active
C#CCN(C)CCCCC.O=C(O)C(=O)O	370 nM
C#CCN(C)CCCC.Cl	1400 nM
C#CCN(C)C(C)CCCC.Cl (configuration not stated)	82 nM
C#CCN(C)C(C)CCCCC.Cl (configuration not stated)	210 nM
C#CCN(C)CCCCCCO.Cl	120000 nM
C#CCN(C)C(C)CCCCCCCCCC.Cl (configuration not stated)	39 nM
C#CCN(C)C(C)CCCCCCCC.Cl (configuration not stated)	180 nM

Target: T2, Amine oxidase [flavin-containing] A (Rattus norvegicus, UniProt P21396)
T2 sequence (P21396 whole entry): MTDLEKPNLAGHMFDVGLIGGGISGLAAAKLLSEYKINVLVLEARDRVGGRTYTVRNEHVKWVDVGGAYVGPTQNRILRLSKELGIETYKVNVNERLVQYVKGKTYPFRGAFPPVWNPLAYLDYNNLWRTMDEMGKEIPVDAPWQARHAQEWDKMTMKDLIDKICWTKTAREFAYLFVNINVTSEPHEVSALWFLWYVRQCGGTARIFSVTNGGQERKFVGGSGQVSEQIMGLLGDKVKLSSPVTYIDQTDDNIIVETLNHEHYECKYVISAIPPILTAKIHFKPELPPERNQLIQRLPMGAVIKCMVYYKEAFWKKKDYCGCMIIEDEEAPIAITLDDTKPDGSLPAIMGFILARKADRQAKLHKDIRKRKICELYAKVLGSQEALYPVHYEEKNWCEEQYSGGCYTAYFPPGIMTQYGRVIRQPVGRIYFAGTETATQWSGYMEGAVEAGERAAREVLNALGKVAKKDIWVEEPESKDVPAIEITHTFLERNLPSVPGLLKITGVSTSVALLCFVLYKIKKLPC
Test: Inhibition of Monoamine oxidase A of rat liver mitochondrial membranes
Type: cell membranes, Membrane
Details: not given

SMILES	IC50
C#CCN(C)CCCCC(=O)OCC.O=C(O)C(=O)O	Not Active
C#CCN(C)CCC(=O)O.O=C(O)C(=O)O	Not Active
C#CCN(C)CCCCC.O=C(O)C(=O)O	120000 nM
C#CCN(C)CCCC.Cl	98000 nM
C#CCN(C)C(C)CCCC.Cl (configuration not stated)	90000 nM
C#CCN(C)C(C)CCCCC.Cl (configuration not stated)	19000 nM
C#CCN(C)CCCCCCO.Cl	Not Active
C#CCN(C)C(C)CCCCCCCCCC.Cl (configuration not stated)	1900 nM
C#CCN(C)C(C)CCCCCCCC.Cl (configuration not stated)	3900 nM

System: Mus musculus
Test: MAO activities in the mouse brain after intraperitoneal administration of compound towards 5-HT (5 x 10e-4 M) substrate
Type: functional
Details: ip, read-out: ID50 (the source's name)

SMILES	ED50
C#CCN(C)CCCCC.O=C(O)C(=O)O	> 218 µmol/kg
C#CCN(C)CCCC.Cl	478 µmol/kg
C#CCN(C)C(C)CCCC.Cl (configuration not stated)	262 µmol/kg
C#CCN(C)C(C)CCCCC.Cl (configuration not stated)	127 µmol/kg
C#CCN(C)C(C)CCCCCCCCCC.Cl (configuration not stated)	223 µmol/kg
C#CCN(C)C(C)CCCCCCCC.Cl (configuration not stated)	144 µmol/kg

System: Mus musculus
Test: MAO activities in the mouse brain after intraperitoneal administration of compound towards PE (1.9 x 10e-5 M) substrate
Type: functional
Details: ip, read-out: ID50 (the source's name)

SMILES	ED50
C#CCN(C)CCCCC.O=C(O)C(=O)O	6.8 µmol/kg
C#CCN(C)CCCC.Cl	11.2 µmol/kg
C#CCN(C)C(C)CCCC.Cl (configuration not stated)	1.2 µmol/kg
C#CCN(C)C(C)CCCCC.Cl (configuration not stated)	2.6 µmol/kg
C#CCN(C)C(C)CCCCCCCCCC.Cl (configuration not stated)	15.5 µmol/kg
C#CCN(C)C(C)CCCCCCCC.Cl (configuration not stated)	15 µmol/kg

System: Mus musculus
Test: Compound was evaluated for MAO-A activity after 9 day of chronic peritoneal administration in mouse fore brain at dose of 0.2 mg/kg
Type: functional
Details: not given

SMILES	Relative activity
C#CCN(C)C(C)CCCC.Cl (configuration not stated)	103%

System: Mus musculus
Test: Compound was evaluated for MAO-A activity after 9 days of chronic peritoneal administration in mouse fore brain at dose of 0.05 mg/kg
Type: functional
Details: not given

SMILES	Relative activity
C#CCN(C)C(C)CCCC.Cl (configuration not stated)	95%

System: Mus musculus
Test: Compound was evaluated for MAO-B activity after 1 day of chronic peritoneal administration in mouse fore brain at dose of 0.05 mg/kg
Type: functional
Details: not given

SMILES	Relative activity
C#CCN(C)C(C)CCCC.Cl (configuration not stated)	55%

System: Mus musculus
Test: Compound was evaluated for MAO-B activity after 1 day of chronic peritoneal administration in mouse fore brain at dose of 0.25 mg/kg
Type: functional
Details: not given

SMILES	Relative activity
C#CCN(C)C(C)CCCCCCCC.Cl (configuration not stated)	94%

System: Mus musculus
Test: Compound was evaluated for MAO-B activity after 1 day of chronic peritoneal administration in mouse fore brain at dose of 0.2 mg/kg
Type: functional
Details: not given

SMILES	Relative activity
C#CCN(C)C(C)CCCC.Cl (configuration not stated)	36%

System: Mus musculus
Test: Compound was evaluated for MAO-B activity after 20 day of chronic peritoneal administration in mouse fore brain at dose of 0.2 mg/kg
Type: functional
Details: not given

SMILES	Relative activity
C#CCN(C)C(C)CCCC.Cl (configuration not stated)	27%

System: Mus musculus
Test: Compound was evaluated for MAO-B activity after 20 days of chronic peritoneal administration in mouse fore brain at dose of 0.05 mg/kg
Type: functional
Details: not given

SMILES	Relative activity
C#CCN(C)C(C)CCCC.Cl (configuration not stated)	37%

System: Mus musculus
Test: Compound was evaluated for MAO-A activity after 1 day of chronic peritoneal administration in mouse fore brain at dose of 0.05 mg/kg
Type: functional
Details: not given

SMILES	Relative activity
C#CCN(C)C(C)CCCC.Cl (configuration not stated)	104%

System: Mus musculus
Test: Compound was evaluated for MAO-A activity after 1 day of chronic peritoneal administration in mouse fore brain at dose of 0.25 mg/kg
Type: functional
Details: not given

SMILES	Relative activity
C#CCN(C)C(C)CCCCCCCC.Cl (configuration not stated)	85%

System: Mus musculus
Test: Compound was evaluated for MAO-A activity after 1 day of chronic peritoneal administration in mouse fore brain at dose of 0.2 mg/kg
Type: functional
Details: not given

SMILES	Relative activity
C#CCN(C)C(C)CCCC.Cl (configuration not stated)	103%

System: Mus musculus
Test: Compound was evaluated for MAO-A activity after 13 days of chronic peritoneal administration in mouse fore brain at dose of 0.25 mg/kg
Type: functional
Details: not given

SMILES	Relative activity
C#CCN(C)C(C)CCCCCCCC.Cl (configuration not stated)	79%

System: Mus musculus
Test: Compound was evaluated for MAO-A activity after 20 day of chronic peritoneal administration in mouse fore brain at dose of 0.2 mg/kg
Type: functional
Details: not given

SMILES	Relative activity
C#CCN(C)C(C)CCCC.Cl (configuration not stated)	81%

System: Mus musculus
Test: Compound was evaluated for MAO-A activity after 20 days of chronic peritoneal administration in mouse fore brain at dose of 0.05 mg/kg
Type: functional
Details: not given

SMILES	Relative activity
C#CCN(C)C(C)CCCC.Cl (configuration not stated)	76%

System: Mus musculus
Test: Compound was evaluated for MAO-B activity after 9 day of chronic peritoneal administration in mouse fore brain at dose of 0.2 mg/kg
Type: functional
Details: not given

SMILES	Relative activity
C#CCN(C)C(C)CCCC.Cl (configuration not stated)	35%

System: Mus musculus
Test: Compound was evaluated for MAO-B activity after 9 days of chronic peritoneal administration in mouse fore brain at dose of 0.05 mg/kg
Type: functional
Details: not given

SMILES	Relative activity
C#CCN(C)C(C)CCCC.Cl (configuration not stated)	41%

System: Mus musculus
Test: MAO activities in the mouse brain after oral administration of compound towards 5-HT (5 x 10e-4 M) substrate
Type: functional
Details: not given

SMILES	Relative activity
C#CCN(C)CCCCC.O=C(O)C(=O)O	97%
C#CCN(C)CCCC.Cl	98%
C#CCN(C)C(C)CCCCC.Cl (configuration not stated)	99%
C#CCN(C)C(C)CCCCCCCCCC.Cl (configuration not stated)	107%
C#CCN(C)C(C)CCCCCCCC.Cl (configuration not stated)	97%

System: Mus musculus
Test: MAO activities in the mouse brain after oral administration of compound towards PE (1.9 x 10e-5 M) substrate
Type: functional
Details: not given

SMILES	Relative activity
C#CCN(C)CCCCC.O=C(O)C(=O)O	72%
C#CCN(C)CCCC.Cl	67%
C#CCN(C)C(C)CCCCC.Cl (configuration not stated)	39%
C#CCN(C)C(C)CCCCCCCCCC.Cl (configuration not stated)	64%
C#CCN(C)C(C)CCCCCCCC.Cl (configuration not stated)	104%

System: Rattus norvegicus
Test: MAO activity evaluated in dissected forebrain of rat after 2 hr of administration
Type: functional
Details: not given

SMILES	ED50
C#CCN(C)CCCC.Cl	141 µmol/kg
C#CCN(C)C(C)CCCC.Cl (configuration not stated)	5.1 µmol/kg
C#CCN(C)C(C)CCCCCCCC.Cl (configuration not stated)	171 µmol/kg

Target: T3, Monoamine oxidase (Rattus norvegicus, UniProt P19643+P21396)
T3 sequence (P19643 whole entry): T1 sequence (P19643 whole entry)
T3 sequence (P21396 whole entry): T2 sequence (P21396 whole entry)
Type: protein assay
Details: not given

SMILES	IC50
C#CCN(C)C(C)CCCCC.Cl (configuration not stated)	320 nM
C#CCN(C)C(C)CCCCCCCCCC.Cl (configuration not stated)	280 nM
C#CCN(C)C(C)CCCCCCCC.Cl (configuration not stated)	210 nM

System: Mus musculus
Test: Compound was evaluated for MAO-B activity after 13 days of chronic peritoneal administration in mouse fore brain at dose of 0.25 mg/kg
Type: functional
Details: not given

SMILES	Relative activity
C#CCN(C)C(C)CCCCCCCC.Cl (configuration not stated)	70%
